Data from patent US20040115792A1, “Yeast strain for testing the geno- and cytotoxicity of complex environmental contaminations” (priority 2000, published 2004).

Experiments:
[1] = test system: Saccharomyces cerevisiae wild strain; assay: Growth and fluorescence test in the presence of inhibitors, wild strain; assay type: cell-based; conditions: 0.05 and 0.5 ng/ml mitomycin C, 0.01 and 0.1 ng/ml TPhT, 30° C., 8 hours
[2] = test system: pdr5yor1snq2 triple-mutant yeast strain; assay: Growth and fluorescence test in the presence of inhibitors, pdr5yor1snq2 triple-mutant strain; assay type: cell-based, Saccharomyces cerevisiae; conditions: 0.05 and 0.5 ng/ml mitomycin C, 0.01 and 0.1 ng/ml TPhT, 30° C., 8 hours
[3] = test system: rad54::egfp reporter in yeast strain HLY5RG-12B2; assay: Genotoxic signaling: egfp under rad54 promoter, green fluorescence; conditions: depending on concentration: mitomycin C 0.05 and 0.5 ng/ml, TPhT 0.01 and 0.1 ng/ml, 8 hours, 30° C.
Experimental: (§1) Cultures of Saccharomyces cerevisiae wild strain, of the pdr5yor1snq2 triple-mutant yeast strain and of the genotoxically and cytotoxically signaling strain HLY5RG-12B2 expressing Dsred and egfp were grown in complete medium YPD (2% yeast extract, 1% peptone) with 2% D-glucose, pH 5.0, at 30° C. over night with shaking.
Subsequently, a spectral excitation at 489 nm was performed for the genotoxic substance testing, and the intensity of the emission maxima at 508 nm (specific of egfp) was measured for all cell suspensions.

[4] = test system: pma1-DsRed1 reporter in yeast strain HLY5RG-12B2; assay: Cytotoxic signaling: DsRed1 under pma1 promoter, red fluorescence; conditions: depending on concentration: mitomycin C 0.05 and 0.5 ng/ml, TPhT 0.01 and 0.1 ng/ml, 8 hours, 30° C.
Experimental: as §1
For the cytotoxic substance testing, a spectral excitation at 558 nm was performed, and the intensity of the emission maxima at 583 nm (specific of DsRedp) was measured for all cell suspensions. In addition, a determination of the simple growth of the cells by measuring the optical density at 600 nm was performed.

[5] = test system: cytochrome-P450-dependent aromatase; conditions: marine gastropods; Bettin et al. 1995; cited from earlier work

| Substance | growth rate (doubling time) [1] [min] | specific red (583 nm) or green (508 nm) fluorescence [1] | growth rate (doubling time) [2] [min] | specific red (583 nm) or green (508 nm) fluorescence [2] | green fluorescence, emission maximum 508 nm (genotoxic potential) [3] | red fluorescence, emission maximum 583 nm (cytotoxic potential) [4] | effect on aromatization of androgens into estrogens [5] |
| --- | --- | --- | --- | --- | --- | --- | --- |
| triphenyltin [TPhT] | 90 | without showing a specific red (cytotoxic potential) or green (genotoxic potential) fluorescence | 180 | without showing a specific red (cytotoxic potential) or green (genotoxic potential) fluorescence | no increasing green fluorescence | increasing specific red fluorescence | – |
| tributyltin [TBT] | – | – | – | – | – | – | inhibits the aromatization of androgens into estrogens |
